Assay results reported in patent EP4700022A1, “CYP11A1 INHIBITORS AND USE THEREOF” (Xizang Haisco Pharmaceutical Co., Ltd., priority 2023, dated 2024).

Key:
[1] = tested on: testosterone level in NCI-H295R cells; test: cells; assay type: cell-based; settings: Homo sapiens, 72 h; for IC50: read-out: IC50/nM; for inhibition at 0.1 µM: read-out: Testosterone level in H295R (Elisa) inh.% 100 nM; for inhibition at 1 µM: read-out: Testosterone level in H295R (Elisa) inh.% 1000 nM
Procedure: 1. The purpose of the experimental study was intended to detect the testosterone level in the NCI-H295R cells by adopting the Enzyme linked immunosorbent assay (ELISA), so as to evaluate the inhibitory effects of the compounds on the testosterone level in the NCI-H295R cells. The H295R cells were purchased from ATCC, the cell complete medium contained DMEM: F12+ 10% FBS +0.00625 mg/ml insulin +0.00625 mg/ml transferrin+6.25 ng/ml selenium +1.25 mg/ml BSA+0.00535 mg/ml linoleic acid, and the cells were cultured in a 37°C, 5% CO2 incubator. The cells in the exponential growth phase were collected, and cultured in a cytokine-free medium (phenol red 1640-free +1% PS+10% css FBS+1.25 mg/ml BSA +0.00625 mg/ml insulin + 0.00625 mg/ml transferrin+6.25 ng/ml selenium+0.00535 mg/ml linoleic acid) for 3 days. The cells in the exponential growth phase were collected on the third day. The cell suspension was adjusted with a cytokine-free medium to a corresponding concentration and plated at 60000 cells/well, with the volume being 90 µL/well. Subsequently, 10 µL of the compounds at different concentrations was added and the plate was incubated in a CO2 incubator for 3 days. After the incubation was completed, according to the operation instructions for testosterone Elisa kit (Beyotime, PT872), 50 µL of the cell culture supernatant was collected from each well and centrifuged at 500 g for 5 min at room temperature and then the resulting supernatant was collected. The samples were added to the corresponding wells at 25 µl/well, and then formulated horseradish peroxidase labeled testosterone was added at 75 µl/well. The mixture was fully mixed for 10 seconds. The reaction wells were sealed with a plate-sealing film (white) and the mixture was incubated at room temperature in the dark for 120 min. The plate was washed 3 times with a volume of 300 µl per well, and then placed onto thick absorbent paper and dried. Chromogenic reagent TMB solution was added at 100 µl/well. The reaction wells were sealed with a plate-sealing film (white) and the mixture was incubated at room temperature in the dark for 15-20 min. Subsequently, a termination solution was added at 50 µl/well, and after the mixture was fully mixed, the absorbance value OD450 was immediately measured. The absorbance readings were processed using Graphpad Prim 8.0 software and S-shaped concentration curves were plotted and the IC50 values were calculated using a four-parameter non-linear regression model. The results were processed according to formula (1), the inhibition rate of the compound at different concentrations was calculated, and the IC50 value of the compound with an inhibition rate of 50% was calculated using Graphpad Prim 8.0 software, wherein RLU compound was the readout of the treated group, and RLU control was the average value of the solvent control group. Inhibition rate% = 100-RLUcompound /RLUcontrol × 100 [formula] Table 1. Inhibitory activity on testosterone level in NCI-H295R cells

[2] = tested on: pregnenolone level in NCI-H295R cells; test: cells; assay type: cell-based; settings: Homo sapiens, 72 h; for IC50: read-out: Pregnenolone level in H295R (Elisa) IC50 nM
Procedure: 2. The purpose of the experimental study was intended to detect the pregnenolone level in the NCI-H295R cells by adopting the Enzyme linked immunosorbent assay (ELISA), so as to evaluate the inhibitory effects of the compounds on the pregnenolone level in the NCI-H295R cells.
The H295R cells were purchased from ATCC (CRL-2128), the cell complete medium contained DMEM: F12+ 10% FBS +0.00625 mg/ml insulin+0.00625 mg/mL transferrin+6.25 ng/mL selenium+1.25 mg/mL BSA+0.00535 mg/mL linoleic acid, and the cells were cultured in a 37°C, 5% CO2 incubator. The cells in the exponential growth phase were collected, and cultured in a cytokine-free medium (phenol red 1640-free +1% PS+10% css FBS+1.25 mg/mL BSA +0.00625 mg/mL insulin+0.00625 mg/mL transferrin+6.25 ng/mL selenium+0.00535 mg/mL linoleic acid) for 3 days. The cells in the exponential growth phase were collected on the third day. The cell suspension was adjusted with a cytokine-free medium to a corresponding concentration and plated at 60000 cells/well, with the volume being 90 µL/well. Subsequently, 10 µL of the compounds at different concentrations was added and the plate was incubated in a CO2 incubator for 3 days. After the incubation was completed, the cell culture supernatant was collected and centrifuged at 2°C-8°C at 800×g for 10 min. The resulting supernatant was collected. Determination was carried out according to the operation instructions for pregnenolone Elisa kit (Antibodies-A73791), and the OD450 signal was read.
2.1 Standard curve plotting. The standard concentration was taken as the abscissa and the OD450 value as the ordinate, the coordinate points of various standards were connected with a smooth line and a curve was fitted according to the four parameter logistic (4-PL) method.
2.2 Sample quantification: The corresponding concentration (CONC) of testosterone/pregnenolone in the sample was calculated using the absorbance value of the sample and the standard curve. According to formula (2), the inhibition rate of the compound at various concentrations was calculated, and S-shaped concentration curves were plotted and the IC50 values (i.e., concentration of the compound at which the inhibition rate was 50%) were calculated using a three parameter non-linear regression model in Graphpad Prim 8.0 software. CONC cpd was the concentration of the treated group, and CONC ctrl was the average concentration value of the solvent control group. Inhibition rate% = 100%-CONCepd /CONCctrl × 100% [formula]

[3] = Pharmacokinetic test in mice; assay type: in vivo; settings: mouse, male ICR mice, plasma; for Vd: read-out: Vdss
Procedure: 4.1. Experimental animals: Male ICR mice, 20-25 g, 6 mice/compound, purchased from Chengdu Dossy Experimental Animals Co., Ltd.
4.2 Experimental design: on the day of the experiment, the ICR mice were randomly grouped according to their body weights. […] Table 5. Administration information
vehicle for intravenous administration: 5% DMA+5% HS-15+90% NS; vehicle for intragastric administration: 0.5% MC
Before and after administration, 0.06 mL of blood was taken from the orbit under isoflurane anesthesia and placed in an EDTAK2 centrifuge tube. The tube was centrifuged at 5000 rpm at 4°C for 10 min, and plasma was collected. […] Before analysis and detection, all samples were stored at -80°C, and the samples were quantitatively analyzed by LC-MS/MS. Table 6. Pharmacokinetic parameters of test compounds in plasma of mice

[4] = Pharmacokinetic test in beagle dogs; assay type: in vivo; settings: dog, male beagle dogs, plasma
Procedure: Experimental animals: male beagle dogs, about 8-11 kg, 6 beagle dogs/compound, purchased from Beijing Marshall Biotechnology Co., Ltd.
Experimental method: on the day of the experiment, the beagle dogs were randomly grouped according to their body weights. The animals were fasted with water available for 12-14 h one day before the administration, and were fed 4 h after the administration. Administration was performed as per Table 7.
Test compounds: example compounds and control compounds. Table 7. Administration information
Before and after the administration, 1 ml of blood was taken from the jugular veins or limb veins, and placed in an EDTAK2 centrifuge tube. Centrifugation was performed at 5000 rpm at 4°C for 10 min, and plasma was collected. The blood collection time points for both the intravenous administration group and the intragastric administration group were: 0, 5 min, 15 min, 30 min, 1 h, 2 h, 4 h, 6 h, 8 h, 10 h, 12 h, 24 h, 48 h, and 72 h. Before analysis and detection, all samples were stored at -80°C. The samples were analyzed quantitatively by LC-MS/MS. Table 8. Pharmacokinetic parameters of test compounds in plasma of beagle dogs

[5] = Pharmacokinetic test in rats; assay type: in vivo; settings: rat, male SD rats, plasma; for Vd: read-out: Vdss
Procedure: 3.1 Experimental animals: Male SD rats (about 220 g, 6-8 weeks old, 6 rats/compound), purchased from Chengdu Dossy Experimental Animals Co., Ltd.
3.2 Experimental design: On the day of the experiment, the SD rats were randomly grouped by body weight. […] Table 3. Administration information
Before and after the administration, 0.1 ml of blood was taken from the orbit of the animals under isoflurane anesthesia and placed in an EDTAK2 centrifuge tube. The blood was centrifuged at 5000 rpm and 4°C for 10 min to collect plasma. […] Before analysis and detection, all samples were stored at -80°C. Table 4. Pharmacokinetic parameters of test compounds in plasma of rats

[6] = po, intragastric administration (10 mg/kg)
[7] = intravenous administration (2.5 mg/kg)
[8] = po, intragastric administration (3 mg/kg)
[9] = intravenous administration (1 mg/kg)

Row | SMILES | IC50 [1] [nM] | IC50 [2] [nM] | AUC(0-t) [3, 6] [ng·h/mL] | half-life [3, 6] [min] | AUC(0-t) [3, 7] [ng·h/mL] | clearance [3, 7] [mL/min/kg] | half-life [3, 7] [min] | Vd [3, 7] [L/kg] | AUC(0-t) [5, 6] [ng·h/mL] | half-life [5, 6] [min] | AUC(0-t) [5, 7] [ng·h/mL] | clearance [5, 7] [mL/min/kg] | half-life [5, 7] [min] | Vd [5, 7] [L/kg] | inhibition at 0.1 µM [1] [%] | inhibition at 1 µM [1] [%] | other results
1 | [2H]C([2H])([2H])C(=O)N[C@H]1CC[C@H](c2cc3oc(CN4Cc5ccc(C(F)(F)F)cc5C4)cc(=O)c3o2)CC1 [Compound 58] | 57 | 160 | 9460 | 125 | 2960 | 14.2 | 166 | 1.34 | – | – | – | – | – | – | – | – | AUC(0-t) [4, 8]: 24800 ng·h/mL; half-life [4, 8]: 407 min; AUC(0-t) [4, 9]: 14000 ng·h/mL; clearance [4, 9]: 1.24 mL/min/kg; half-life [4, 9]: 612 min; Vd ([4]; intravenous administration (1 mg/kg), read-out: Vdss): 0.87 L/kg
2 | [2H]C([2H])([2H])C(=O)N[C@H]1CC[C@H](CCOc2cc(CN3Cc4ccc(C(F)(F)F)cc4C3)ccn2)CC1 [Compound 62] | 151 | 142 | – | – | – | – | – | – | 41500 | 248 | 10800 | 3.97 | 229 | 1.11 | – | – | –
3 | [2H]C([2H])([2H])n1cc(C(=O)N[C@H]2CC[C@H](CCOc3cc(CN4Cc5ccc(C(F)(F)F)cc5C4)ccn3)CC2)cn1 [Compound 63] | 92 | 272 | 20800 | 397 | 5530 | 7.37 | 282 | 2.36 | – | – | – | – | – | – | 64.4 | 76.4 | –
4 | O=C(N[C@H]1CC[C@H](CCOc2cc(CN3Cc4ccc(C(F)(F)F)cc4C3)ccn2)CC1)C1CC1 [Compound 65] | 168 | 319 | – | – | – | – | – | – | 7550 | 395 | 2150 | 17.4 | 495 | 8.8 | 71 | 75 | –
5 | O=C(N[C@H]1CC[C@H](CCOc2cc(CN3Cc4ccc(C(F)(F)F)cc4C3)ccn2)CC1)[C@@H]1CC1(F)F [Compound 71] | – | – | – | – | – | – | – | – | – | – | – | – | – | – | 74.9 | 86.9 | inhibition at 0.1 µM ([2]; read-out: Pregnenolone level in H295R (Elisa) inh.% 100 nM): 43.9%; inhibition at 1 µM ([2]; read-out: Pregnenolone level in H295R (Elisa) inh.% 1000 nM): 57.5%
